ChEMBL document CHEMBL5604063, “ASAP - DENV-2 NS2B-NS3 protease fluorescence dose response” (2024)
Several values for one entry are separate records, joined by “and”; a condition that tells them apart may be missing. Equal values may be shown once.

What was measured:
Genome polyprotein [1] = target: T1, Genome polyprotein (dengue virus type 2, UniProt P29990); type: functional, Thailand/16681/1984
Genome polyprotein [2] = target: T1, Genome polyprotein; type: functional, Thailand/16681/1984; remark: listed apart in the source

T1 sequence (P29990 1346-1475 limits assumed): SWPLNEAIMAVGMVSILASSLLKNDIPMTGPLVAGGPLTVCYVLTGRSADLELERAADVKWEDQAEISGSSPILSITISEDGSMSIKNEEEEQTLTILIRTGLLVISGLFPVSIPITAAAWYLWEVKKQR
T1 sequence (P29990 1476-2093 limits assumed): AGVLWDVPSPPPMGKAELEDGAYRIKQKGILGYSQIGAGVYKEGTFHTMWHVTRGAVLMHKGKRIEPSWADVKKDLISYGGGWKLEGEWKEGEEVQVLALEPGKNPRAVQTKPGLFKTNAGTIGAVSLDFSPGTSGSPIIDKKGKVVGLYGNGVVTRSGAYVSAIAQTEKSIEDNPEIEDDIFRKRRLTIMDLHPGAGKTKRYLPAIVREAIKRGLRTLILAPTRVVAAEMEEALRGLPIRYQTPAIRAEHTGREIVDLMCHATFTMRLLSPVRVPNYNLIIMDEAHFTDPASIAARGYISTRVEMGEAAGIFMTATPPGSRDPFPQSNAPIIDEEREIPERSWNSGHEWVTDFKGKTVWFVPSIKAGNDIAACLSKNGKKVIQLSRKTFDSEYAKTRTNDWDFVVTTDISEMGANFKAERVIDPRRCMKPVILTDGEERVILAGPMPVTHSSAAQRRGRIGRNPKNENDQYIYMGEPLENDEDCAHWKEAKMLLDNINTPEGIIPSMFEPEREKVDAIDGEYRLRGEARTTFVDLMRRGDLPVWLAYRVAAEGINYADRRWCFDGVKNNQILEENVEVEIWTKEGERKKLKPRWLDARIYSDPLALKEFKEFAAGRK

SMILES	IC50 (Genome polyprotein [1])	IC50 (Genome polyprotein [2])
N#C[C@]1(Nc2ccc3c(c2)CNC3)C(=O)Nc2ccccc21	> 99.5 µM	> 100 µM
CCc1cc(C(=O)Nc2ccc3c(c2)CNC3)sc1-c1ccc(Cl)cc1	> 99.5 µM	> 100 µM
CC(C)(C)OC(=O)NCc1cc(NC(=O)c2cc(Cl)cc(NC(=O)OCc3ccccc3)c2)cc(-c2nn[nH]n2)c1	7.46 µM	10.7 µM
NCCCCc1ccc(NC(=O)c2cc(Cl)cc3[nH]ncc23)cc1	> 99.5 µM	> 100 µM
Cc1c(C(=O)Nc2cc(CCCN)ccn2)cc(C2CCC2)n1C	> 99.5 µM	> 100 µM
O=C(Nc1ccc2c(c1)CNCC2)c1cc(Cl)cc2[nH]ncc12	> 99.5 µM	> 100 µM
Cc1c(C(=O)Nc2cc(CCCN)ccn2)cc(C(C)C)n1C	> 99.5 µM	> 100 µM
O=C(O)c1cc2cc(-c3cccc([C@H]4CNCCO4)c3)ccc2[nH]1	> 99.5 µM	> 100 µM
CC(C)Cc1nc2c(C(=O)Nc3ccc4c(c3)CNC4)cc(Br)cc2[nH]1	56.2 µM	> 100 µM
O=C(O)Cc1c[nH]c2cc(-c3cc(Cl)cc(NC(=O)OCc4ccccc4)c3)ccc12	13.3 µM	9.67 µM
CC(C)(C)c1cc(Br)cc(C(=O)Nc2ccc3c(c2)CNC3)c1	> 99.5 µM	> 100 µM
O=C(Nc1ccc2c(c1)CNC2)c1cc(Cl)cc(-n2cccc2)c1	> 99.5 µM	> 100 µM
Cc1oc2nc(-c3cc(Cl)cc(NC(=O)OCc4ccccc4)c3)ccc2c1C(=O)O	16.6 µM	13.7 µM
CN1Cc2ccc(NC(=O)c3cc(Cl)cc4[nH]ncc34)cc2C1	> 99.5 µM	> 100 µM
Cc1cc(CN)cc(NC(=O)c2cc(Cl)cc3[nH]ncc23)c1	98.3 µM	85.4 µM
Cc1cc(NC(=O)c2cc(C3CC3)n(C)c2C)ncc1S(N)(=O)=O	> 99.5 µM	> 100 µM
O=C(O)C[C@H]1CN(c2ccc(-c3cc(Cl)cc(NC(=O)OCc4ccccc4)c3)cn2)CCO1	35.2 µM	22.2 µM
CC(C)NC(=O)[C@H](Nc1ccc2c(c1)CNC2)c1cc(Cl)cc2[nH]ncc12	64 µM and 37.2 µM and 98.4 µM	96.5 µM and 41.2 µM and > 100 µM and 26.4 µM
O=C(Nc1ccc2c(c1)CNC2)c1cc(Br)cc2ccccc12	> 99.5 µM	> 100 µM
NCCc1ccc(NC(=O)c2cc(Cl)cc3[nH]ncc23)cc1	> 99.5 µM	> 100 µM
Cc1c(C(=O)NCc2ccc(CN)cc2)cc(C2CC2)n1C	> 99.5 µM	> 100 µM
O=C(Nc1cc(Cl)cc(-c2cnn(Cc3ccc(C(=O)O)cc3)c2)c1)OCc1ccccc1	18.2 µM	8.1 µM

SMILES	IC50 (Genome polyprotein [1])	IC50 (Genome polyprotein [2])
NCc1cc(NC(=O)c2cc(Cl)cc(NC(=O)OCc3ccccc3)c2)cc(C2=CC[C@H](C(=O)O)CC2)c1	> 99.5 µM	> 100 µM
C=C1C[C@H](c2cc(Cl)cc(NC(=O)OCc3ccccc3)c2)[C@@H](c2cccc(-c3nn[nH]n3)c2)C1	6.29 µM	5.18 µM
O=C(Nc1ccc2c(c1)CNC2)c1cc(Cl)cc(C2CC2)c1	> 99.5 µM	> 100 µM
NCc1cc(NC(=O)c2cc(Cl)cc(NC(=O)OCc3ccccc3)c2)cc(-c2csc(CC(=O)O)c2)c1	64.7 µM	> 100 µM
O=C(Nc1ccc2c(c1)CNC2)c1cc(Cl)cc2c1CCC2	> 99.5 µM	> 100 µM
Cc1c(C(=O)Nc2cc(-c3ccccn3)c(Br)cn2)cc(C2CC2)n1C	> 99.5 µM	> 100 µM
O=C(O)c1cc2cc(-c3cc(Cl)cc4ncccc34)ccc2[nH]1	41.5 µM	50.9 µM
O=C(O)c1cc2cccc(Cc3c[nH]c4ccc(Cl)cc34)c2[nH]1	52.1 µM	21.6 µM
NCc1nc2cc(Cl)ccc2n1Cc1ccc(-c2nn[nH]n2)cc1	> 99.5 µM	> 100 µM
O=C(Nc1ccc2c(c1)CNC2)c1n[nH]c(=O)c2ccccc12	36.8 µM	> 100 µM
O=C1OCc2ccc(NC(=O)c3cc(Cl)cc4[nH]ncc34)cc21	> 99.5 µM	> 100 µM
Clc1ccc2[nH]cc(Cc3ccc4c(c3)CNC4)c2c1	> 99.5 µM	> 100 µM
O=C(Nc1ccc2c(c1)CNC2)c1n[nH]c2ncc(Br)cc12	> 99.5 µM	> 100 µM
Cc1c(C(=O)Nc2cc(-c3cnn(C)c3)ccn2)cc(C2CC2)n1C	> 99.5 µM	> 100 µM
N#Cc1cc(-c2ccc3[nH]c(C(=O)O)cc3c2)c2nc[nH]c2c1	> 99.5 µM	> 100 µM
CCCc1sc(C(=O)Nc2ccc3c(c2)CNC3)cc1CC	> 99.5 µM	> 100 µM
Cc1c(C(=O)Nc2cc(C(N)=O)c3ccccc3n2)cc(C2CC2)n1C	> 99.5 µM	> 100 µM
O=C(Nc1ccc2c(c1)CNC2)c1ccccn1	> 99.5 µM	> 100 µM
N#Cc1ccc(Cl)c(C(=O)Nc2ccc3c(c2)CNC3)c1	> 99.5 µM	> 100 µM
Cc1c(C(=O)Nc2nccc3c2CNCC3)cc(C2CC2)n1C	> 99.5 µM	> 100 µM
Cc1c(C(=O)Nc2cc(CCCN)ccn2)cc(C2CCCCC2)n1C	> 99.5 µM	> 100 µM
